Key:
Galectin-3 = Galectin-3 (Homo sapiens (Human), UniProt P17931); assay: Fluorescence anisotropy assay, inhibition of galectin / fluorescein tagged saccharide probe interaction; format: binding
Description: Experimental Procedures (Evaluation of Kd Values)
The affinity of Example 1-33 for galectins were determined by a fluorescence anisotropy assay where the compound was used as an inhibitor of the interaction between galectin and a fluorescein tagged saccharide probe as described Sörme, P., Kahl-Knutsson, B., Huflejt, M., Nilsson, U. J., and Leffler H. (2004) Fluorescence polarization as an analytical tool to evaluate galectin-ligand interactions. Anal. Biochem. 334: 36-47, (Sörme et al., 2004) and Monovalent interactions of Galectin-1 By Salomonsson, Emma; Larumbe, Amaia; Tejler, Johan; Tullberg, Erik; Rydberg, Hanna; Sundin, Anders; Khabut, Areej; Frejd, Torbjorn; Lobsanov, Yuri D.; Rini, James M.; et al, From Biochemistry (2010), 49(44), 9518-9532, (Salomonsson et al., 2010).

Galectin-1 = Galectin-1 (Homo sapiens (Human), UniProt P09382); assay: as above; format: binding
galectins = conditions: cited from earlier work

Sequence of Galectin-3 (P17931 whole entry): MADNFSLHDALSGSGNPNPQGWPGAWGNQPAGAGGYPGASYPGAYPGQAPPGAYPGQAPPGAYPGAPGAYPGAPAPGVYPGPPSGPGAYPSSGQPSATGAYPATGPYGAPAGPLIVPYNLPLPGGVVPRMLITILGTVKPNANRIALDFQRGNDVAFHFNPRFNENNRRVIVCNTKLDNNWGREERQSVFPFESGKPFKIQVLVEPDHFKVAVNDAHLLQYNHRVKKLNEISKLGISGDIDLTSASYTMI
Sequence of Galectin-1 (P09382 whole entry): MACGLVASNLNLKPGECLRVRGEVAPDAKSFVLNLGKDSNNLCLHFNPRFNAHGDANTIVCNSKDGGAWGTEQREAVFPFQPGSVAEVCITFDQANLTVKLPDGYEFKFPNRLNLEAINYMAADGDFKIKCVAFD

Compound | Kd (Galectin-3) | Kd (Galectin-1) | affinity relative to lactose (galectins; compared with lactose) | Kd (galectins; Leffler, 2001, Leffler et al., 2004, read-out: Kd, all galectins)
OC[C@H]1O[C@H](Sc2ccc(Cl)c(Cl)c2)[C@H](O)[C@@H](n2cc(-c3csc(Cl)n3)nn2)[C@H]1O [Example 7, 3,4-Dichlorophenyl 3-[4-(2-chlorothiazol-4-yl)-1H-1,2,3-triazol-1-yl]-3-deoxy-1-thio-α-D-galactopyranoside] | 1.4 µM | 0.49 µM | – | –
OC[C@H]1O[C@H](Sc2ccc(Cl)c(Cl)c2)[C@H](O)[C@@H](n2cc(-c3csc(O)n3)nn2)[C@H]1O [Example 12, 3,4-Dichlorophenyl 3-deoxy-3-[4-(2-hydroxythiazol-4-yl)-1H-1,2,3-triazol-1-yl]-1-thio-α-D-galactopyranoside] | 8.6 µM | 0.058 µM | – | –
OC[C@H]1O[C@H](Sc2cc(Cl)c(F)c(Cl)c2)[C@H](O)[C@@H](n2cc(-c3csc(O)n3)nn2)[C@H]1O [Example 18, 3,5-Dichloro-4-fluoro-phenyl 3-deoxy-3-[4-(2-hydroxythiazol-4-yl)-1H-1,2,3-triazol-1-yl]-1-thio-α-D-galactopyranoside] | 9.7 µM | 0.027 µM | – | –
OC[C@H]1O[C@H](Sc2cc(Cl)c(Cl)c(Cl)c2)[C@H](O)[C@@H](n2cc(-c3csc(O)n3)nn2)[C@H]1O [Example 20, 3,4,5-trichlorophenyl 3-deoxy-3-[4-(2-hydroxythiazol-4-yl)-1H-1,2,3-triazol-1-yl]-1-thio-α-D-galactopyranoside] | 6 µM | 0.056 µM | – | –
OC[C@H]1O[C@H](Sc2cc(Br)c(F)c(Br)c2)[C@H](O)[C@@H](n2cc(-c3csc(O)n3)nn2)[C@H]1O [Example 21, 3,5-dibromo-4-fluorophenyl 3-deoxy-3-[4-(2-hydroxythiazol-4-yl)-1H-1,2,3-triazol-1-yl]-1-thio-α-D-galactopyranoside] | 4.6 µM | 0.05 µM | – | –
OC[C@H]1O[C@H](Sc2ccc(C(F)(F)F)c(Cl)c2)[C@H](O)[C@@H](n2cc(-c3csc(O)n3)nn2)[C@H]1O [Example 24, 3-Chloro-4-trifluoromethylphenyl 3-deoxy-3-[4-(2-hydroxythiazol-4-yl)-1H-1,2,3-triazol-1-yl]-1-thio-α-D-galactopyranoside] | 6.5 µM | 0.071 µM | – | –
Cc1ccc(S[C@H]2O[C@H](CO)[C@H](O)[C@H](n3cc(-c4csc(O)n4)nn3)[C@H]2O)cc1Cl [Example 26, 3-Chloro-4-methylphenyl 3-deoxy-3-[4-(2-hydroxythiazol-4-yl)-1H-1,2,3-triazol-1-yl]-1-thio-α-D-galactopyranoside] | 6.6 µM | 0.082 µM | – | –
O=C(O)c1ncc(Cl)cc1S[C@H]1O[C@H](CO)[C@H](O)[C@H](n2cc(-c3csc(O)n3)nn2)[C@H]1O [Example 28, 2-carboxy-5-chloropyridyl 3-deoxy-3-[4-(2-hydroxythiazol-4-yl)-1H-1,2,3-triazol-1-yl]-1-thio-α-D-galactopyranoside] | 5.7 µM | 0.046 µM | – | –
OC[C@H]1O[C@H](Sc2cc(Cl)c(Cl)cc2F)[C@H](O)[C@@H](n2cc(-c3csc(O)n3)nn2)[C@H]1O [Example 31, 3,4-Dichloro-6-fluoro-phenyl 3-deoxy-3-[4-(2-hydroxythiazol-4-yl)-1H-1,2,3-triazol-1-yl]-1-thio-α-D-galactopyranoside] | 4.6 µM | 0.013 µM | – | –
CN(C)C(=O)c1ccc(Cl)cc1S[C@H]1OC(CO)[C@H](O)[C@H](n2cc(-c3csc(O)n3)nn2)C1O (stereo partly drawn) [Example 32, 4-Chloro-N,N′-dimethylbenzamide-2-yl 3-deoxy-3-[4-(2-hydroxythiazol-4-yl)-1H-1,2,3-triazol-1-yl]-1-thio-α-D-galactopyranoside] | 2.1 µM | 0.044 µM | – | –
CN(C)C(=O)c1ncc(Cl)cc1S[C@H]1OC(CO)[C@H](O)[C@H](n2cc(-c3csc(O)n3)nn2)C1O (stereo partly drawn) [Example 33, 5-Chloro-N,N′-dimethyl-picolinamide-3-yl 3-deoxy-3-[4-(2-hydroxythiazol-4-yl)-1H-1,2,3-triazol-1-yl]-1-thio-α-D-galactopyranoside] | 1.7 µM | 0.054 µM | – | –
O=C[C@H](O)[C@@H](O)[C@@H](O)[C@H](O)CO [Galactose, D-galactose] | – | – | 50-100 times lower | –
OC[C@H]1O[C@@H](O[C@H]2[C@H](O)[C@@H](O)C(O)O[C@@H]2CO)[C@H](O)[C@@H](O)[C@H]1O (stereo partly shown) [Lactose] | – | – | – | 100 to 1000 µM

Further lines, with some results ahead:

Kd (Galectin-3) | Kd (Galectin-1) | Compound | affinity relative to lactose (galectins; compared with lactose) | Kd (galectins; Leffler, 2001, Leffler et al., 2004, read-out: Kd, all galectins)
0.25 µM | 0.11 µM | OC[C@H]1O[C@H](Sc2cnc(C(F)(F)F)c(Br)c2)[C@H](O)[C@@H](n2cc(-c3nc(Cl)cs3)nn2)[C@H]1O [Example 1, 5-Bromo-6-trifluoromethyl-pyridine-3-yl 3-[4-(4-chlorothiazol-2-yl)-1H-1,2,3-triazol-1-yl]-3-deoxy-1-thio-α-D-galactopyranoside] | – | –
0.58 µM | 0.16 µM | OC[C@H]1O[C@H](Sc2cnc(C(F)(F)F)c(Br)c2)[C@H](O)[C@@H](n2cc(-c3nc(Br)cs3)nn2)[C@H]1O [Example 2, 5-Bromo-6-trifluoromethyl-pyridine-3-yl 3-[4-(4-bromothiazol-2-yl)-1H-1,2,3-triazol-1-yl]-3-deoxy-1-thio-α-D-galactopyranoside] | – | –
0.42 µM | 0.095 µM | N#Cc1ncc(S[C@H]2O[C@H](CO)[C@H](O)[C@H](n3cc(-c4nc(Cl)cs4)nn3)[C@H]2O)cc1Cl [Example 3, 5-Chloro-6-cyano-pyridine-3-yl 3-[4-(4-chlorothiazol-2-yl)-1H-1,2,3-triazol-1-yl]-3-deoxy-1-thio-α-D-galactopyranoside] | – | –
0.2 µM | 0.085 µM | N#Cc1ncc(Br)cc1S[C@H]1O[C@H](CO)[C@H](O)[C@H](n2cc(-c3nc(Cl)cs3)nn2)[C@H]1O [Example 4, 5-Bromo-2-cyano-pyridine-3-yl 3-[4-(4-chlorothiazol-2-yl)-1H-1,2,3-triazol-1-yl]-3-deoxy-1-thio-α-D-galactopyranoside] | – | –
0.22 µM | 0.095 µM | N#Cc1ncc(Cl)cc1S[C@H]1O[C@H](CO)[C@H](O)[C@H](n2cc(-c3nc(Cl)cs3)nn2)[C@H]1O [Example 5, 5-Chloro-2-cyano-pyridine-3-yl 3-[4-(4-chlorothiazol-2-yl)-1H-1,2,3-triazol-1-yl]-3-deoxy-1-thio-α-D-galactopyranoside] | – | –
0.25 µM | 0.068 µM | N#Cc1ncc(S[C@H]2O[C@H](CO)[C@H](O)[C@H](n3cc(-c4nc(Cl)cs4)nn3)[C@H]2O)cc1Br [Example 6, 5-Bromo-6-cyano-3-pyridyl 3-[4-(4-chlorothiazol-2-yl)-1H-1,2,3-triazol-1-yl]-3-deoxy-1-thio-α-D-galactopyranoside] | – | –
8 µM | 0.038 µM | N#Cc1ncc(S[C@H]2O[C@H](CO)[C@H](O)[C@H](n3cc(-c4csc(O)n4)nn3)[C@H]2O)cc1Cl [Example 13, 5-Chloro-6-cyano-pyridine-3-yl 3-deoxy-3-[4-(2-hydroxythiazol-4-yl)-1H-1,2,3-triazol-1-yl]-1-thio-α-D-galactopyranoside] | – | –
2.6 µM | 0.033 µM | N#Cc1ncc(Br)cc1S[C@H]1O[C@H](CO)[C@H](O)[C@H](n2cc(-c3csc(O)n3)nn2)[C@H]1O [Example 14, 5-Bromo-2-cyano-pyridine-3-yl 3-deoxy-3-[4-(2-hydroxythiazol-4-yl)-1H-1,2,3-triazol-1-yl]-1-thio-α-D-galactopyranoside] | – | –
2.8 µM | 0.019 µM | N#Cc1ncc(S[C@H]2O[C@H](CO)[C@H](O)[C@H](n3cc(-c4csc(O)n4)nn3)[C@H]2O)cc1Br [Example 15, 5-Bromo-6-cyano-3-pyridyl 3-deoxy-3-[4-(2-hydroxythiazol-4-yl)-1H-1,2,3-triazol-1-yl]-1-thio-α-D-galactopyranoside] | – | –
2.2 µM | 0.006 µM | N#Cc1ncc(Cl)cc1S[C@H]1O[C@H](CO)[C@H](O)[C@H](n2cc(-c3csc(O)n3)nn2)[C@H]1O [Example 16, 5-Chloro-2-cyano-3-pyridyl 3-deoxy-3-[4-(2-hydroxythiazol-4-yl)-1H-1,2,3-triazol-1-yl]-1-thio-α-D-galactopyranoside] | – | –
2.8 µM | 0.028 µM | OC[C@H]1O[C@H](Sc2cnc(C(F)(F)F)c(Cl)c2)[C@H](O)[C@@H](n2cc(-c3csc(O)n3)nn2)[C@H]1O [Example 17, 5-Chloro-6-trifluoromethyl-pyridin-3-yl 3-deoxy-3-[4-(2-hydroxythiazol-4-yl)-1H-1,2,3-triazol-1-yl]-1-thio-α-D-galactopyranoside] | – | –
6 µM | 0.063 µM | N#Cc1ccc(S[C@H]2O[C@H](CO)[C@H](O)[C@H](n3cc(-c4csc(O)n4)nn3)[C@H]2O)cc1Br [Example 22, 3-Bromo-4-cyanophenyl 3-deoxy-3-[4-(2-hydroxythiazol-4-yl)-1H-1,2,3-triazol-1-yl]-1-thio-α-D-galactopyranoside] | – | –
3.1 µM | 0.032 µM | OC[C@H]1O[C@H](Sc2cnc(C(F)(F)F)c(Br)c2)[C@H](O)[C@@H](n2cc(-c3csc(O)n3)nn2)[C@H]1O [Example 23, 5-Bromo-6-trifluoromethyl-3-pyridyl 3-deoxy-3-[4-(2-hydroxythiazol-4-yl)-1H-1,2,3-triazol-1-yl]-1-thio-α-D-galactopyranoside] | – | –
0.069 µM | 0.39 µM | OC[C@H]1O[C@H](Sc2cnc(C(F)(F)F)c(Br)c2)[C@H](O)[C@@H](n2cc(-c3nc(Cl)c(Cl)s3)nn2)[C@H]1O [Example 29, 5-Bromo-6-trifluoromethyl-pyridine-3-yl 3-deoxy-3-[4-(4,5-dichlorothiazol-2-yl)-1H-1,2,3-triazol-1-yl]-1-thio-α-D-galactopyranoside] | – | –

From patent US11046725B2, “Galactoside inhibitor of galectins” (GALECTO BIOTECH AB, priority 2018, dated 2021)
